From patent publication US8895047B2, “Combined fibrinolytic and antimicrobial catheter and uses thereof” (priority 2007, dated 2014)

Key:
human tPA = biological target: T1, human tPA (Homo sapiens, UniProt P00750); assay: tPA activity assay (chromogenic substrate) after incubation with antimicrobial agents; assay type: biochemical; conditions: concentrations up to 10 μg/mL, overnight at 37° C. with 50 units human tPA; FIGS. 5 and 6
T1 construct: purchased Sigma
Protocol: Different combinations of CHX, GV, minocycline and rifampin (0, 1, 10 μg/mL) were incubated overnight with 50 units of human tPA (Sigma) at 37° C., in buffer (30 mM Tris-HCl, 30 mM Imidazole, 130 mM NaCl, 1% protease free albumin). Samples were incubated with the chromogenic substrate (Sigma); tPA activity was determined by the hydrolysis of the substrate being measured continuously at 405 nm for 5 min at 50 seconds intervals. A standard curve was generated and the units plotted against the slope of the hydrolysis reaction.

human urokinase enzyme = biological target: T2, human urokinase enzyme (Homo sapiens, UniProt P00749); assay: uPA activity assay (chromogenic substrate) after incubation with antimicrobial agents; assay type: biochemical; conditions: for Urokinase activity in the presence of antimicrobial agent: concentrations up to 10 μg/mL, 24 hours at 37° C. with 88 units (0.5 μg) uPA in PBS, FIGS. 2 and 3
T2 construct: purchased American Diagnostica
Protocol: To check the compatibility of urokinase (uPA) and chlorhexidine acetate (CHA), human urokinase enzyme (American Diagnostica) at different concentrations (0, 0.05, 0.5, and 1.0 μg/mL) was incubated with CHA at concentrations between 0-10 μg/mL for 24 hours at 37° C. in phosphate buffered saline (PBS). Subsequently, urokinase activity was measured using uPA Activity Assay Kit (Chemicon). Samples were incubated with an assay buffer and a chromogenic substrate for uPA resulting in the formation of a colored complex followed by reading the absorbance on a spectrophotometer at 405 nm. In a 96 well plate, different combinations of chlorhexidine (CHX), gentian violet (GV), minocycline and rifampin were incubated at concentrations of 0, 1, 10 μg/mL, for 24 hours at 37° C., with 88 units (0.5 μg) of uPA in PBS. Urokinase activity was measured using uPA Activity Assay Kit as described earlier.

human streptokinase = biological target: T3, human streptokinase (Streptococcus dysgalactiae subsp. equisimilis, UniProt P00779); assay: Streptokinase activity assay (S-2251 chromogenic substrate, plasminogen) after incubation with antimicrobial agents; assay type: biochemical; conditions: any concentration up to 10 μg/mL, overnight at 37° C. with 16.5 units streptokinase; FIG. 7
T3 construct: purchased Sigma
Protocol: In a 96 well plate, different combinations of chlorhexidine (0, 1, 10 μg/mL) and gentian violet (0, 1, 10 μg/mL) were incubated overnight with 16.5 units of human streptokinase (Sigma) at 37° C., in 10 mM Tris-HCl buffer containing 0.1M NaCl and 1 mg/mL albumin. Streptokinase activity was measured using a chromogenic substrate S-2251 (Chromogenix). Samples were incubated with 0.6 mM S-2251 and 0.1 U/ml plasminogen (Sigma) for one hour. Hydrolysis of the substrate was measured at 405 nm and a standard curve was generated with the units plotted against the slope of the hydrolysis reaction.

S. epidermidis = assay: Minimum inhibitory concentration of chlorhexidine acetate against S. epidermidis; assay type: cell-based
Protocol: FIG. 4. Chlorhexidine activity in the presence of urokinase. […] CHA MIC Control=urokinase in tris-buffered saline (TBS)+CHA+Mueller-Hinton broth (MHB); Growth Control=dimethyl sulfoxide (DMSO)+TBS+S. epidermidis+MHB; Negative Control=DMSO+TBS+MHB.
To determine if urokinase affects the antimicrobial efficacy of chlorhexidine, the following experiment was conducted. The minimum inhibitory concentration (MIC) of chlorhexidine acetate (CHA) against S. epidermidis is 0.5 ppm in the absence of urokinase. Absorbance above baseline on the plot in […] indicates growth of microbial organisms (i.e., inability to inhibit microbial growth). An increase in the MIC would be indicative of a reduction in the antimicrobial potency of CHA due to interference by Urokinase.

T1 sequence (P00750 36-562): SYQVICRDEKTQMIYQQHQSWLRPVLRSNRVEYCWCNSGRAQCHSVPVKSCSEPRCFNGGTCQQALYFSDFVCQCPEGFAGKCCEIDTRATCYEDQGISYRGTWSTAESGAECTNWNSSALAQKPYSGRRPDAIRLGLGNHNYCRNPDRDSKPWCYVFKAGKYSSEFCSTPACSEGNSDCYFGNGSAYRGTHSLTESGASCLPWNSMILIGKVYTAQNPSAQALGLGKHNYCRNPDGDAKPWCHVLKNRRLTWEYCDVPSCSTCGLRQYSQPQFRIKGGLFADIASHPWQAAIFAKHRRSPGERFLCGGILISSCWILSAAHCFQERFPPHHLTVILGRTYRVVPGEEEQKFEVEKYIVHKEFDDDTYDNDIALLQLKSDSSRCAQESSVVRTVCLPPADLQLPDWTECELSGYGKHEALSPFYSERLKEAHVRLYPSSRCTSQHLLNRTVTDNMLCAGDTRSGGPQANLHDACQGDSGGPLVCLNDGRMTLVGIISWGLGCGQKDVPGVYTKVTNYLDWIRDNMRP
T3 sequence (P00779 27-440): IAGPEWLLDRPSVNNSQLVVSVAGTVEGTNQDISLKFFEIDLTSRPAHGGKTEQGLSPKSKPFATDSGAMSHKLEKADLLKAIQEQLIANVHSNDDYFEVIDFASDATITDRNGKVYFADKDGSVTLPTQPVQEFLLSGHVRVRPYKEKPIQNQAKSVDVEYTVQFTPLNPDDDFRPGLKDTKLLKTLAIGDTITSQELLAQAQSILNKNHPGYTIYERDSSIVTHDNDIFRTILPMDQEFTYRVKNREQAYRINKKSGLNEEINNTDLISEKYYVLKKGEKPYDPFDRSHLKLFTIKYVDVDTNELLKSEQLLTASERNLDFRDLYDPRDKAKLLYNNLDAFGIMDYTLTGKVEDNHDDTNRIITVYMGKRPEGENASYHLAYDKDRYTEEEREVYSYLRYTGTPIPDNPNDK

Structure (SMILES)	tPA activity in the presence of antimicrobial agent (human tPA)	Urokinase activity in the presence of antimicrobial agent (human urokinase enzyme)	streptokinase activity in the presence of antimicrobial agent (human streptokinase)	minimum inhibitory concentration (MIC) (S. epidermidis; in the absence of urokinase) [ppm]	MIC in the presence of Urokinase (S. epidermidis; presence of urokinase, FIG. 4)	Urokinase activity in the presence of CHA (human urokinase enzyme; CHA 0-10 μg/mL with uPA 0-1.0 μg/mL, 24 hours at 37° C. in PBS, CHA:uPA ratio 0.05 or higher, FIG. 1)
CO[C@H]1/C=C/O[C@@]2(C)Oc3c(C)c(O)c4c(O)c(c(/C=N/N5CCN(C)CC5)c(O)c4c3C2=O)NC(=O)/C(C)=C\C=C\[C@H](C)[C@H](O)[C@@H](C)[C@@H](O)[C@@H](C)[C@H](OC(C)=O)[C@@H]1C [rifampin]	not affected	not adversely affected	–	–	–	–
[H]/N=C(\N/C(=N/[H])NCCCCCCNC(=N)NC(=N)Nc1ccc(Cl)cc1)Nc1ccc(Cl)cc1 [CHX, chlorhexidine]	not affected	not adversely affected	unaffected	–	–	–
CN(C)c1ccc(C(=C2C=CC(=[N+](C)C)C=C2)c2ccc(N(C)C)cc2)cc1 [GV, gentian violet]	not affected	not adversely affected	unaffected	–	–	–
CC(=O)O.CC(=O)O.NC(=N\CCCCCC/N=C(N)/N=C(\N)Nc1ccc(Cl)cc1)/N=C(\N)Nc1ccc(Cl)cc1 [CHA, chlorhexidine acetate]	–	–	–	0.5	not affected	not affected
